Experimental findings from patent US20250025438A1, “Derivative of aspartic acid and use thereof in treatment of metabolic diseases such as hepatic fibrosis and non-alcoholic hepatitis” (SHENZHEN JINGTAI TECHNOLOGY CO., LTD., priority 2021, published 2025) are described below.

Counter-ions that a name gives are not always drawn. Where a SMILES comes first, the peptide text is derived from it.

Common to all, as to assay type: cell-based
One assay has as its system COL3A1. As to the kind of experiment: In vitro efficacy in semi-activated LX2 cells, qPCR: COL3A1. The note with it: Homo sapiens, LX-2, 50 µM, 48 hours, Q-PCR, read-out: COL3A1 mRNA inhibition rate. As to the method:
(§1) Test compounds were added to the LX-2 cells respectively, and total RNA in the cells was extracted 48 hours later. This experiment was performed strictly in accordance with the instructions of the Total RNA Kit. The steps were as follows (note: this experiment was performed on ice throughout the entire process, and special RNase-free tips were used throughout the entire process): • 1) The 12-well cell culture plate was taken out from the incubator, the cell culture medium was discarded, the cells were washed twice with 1 mL of 1×PBS, and a negative pressure suction device was used to fully remove PBS; • 2) 350 μL of TRK Lysis Buffer mixture/well was prepared as needed (mixture preparation method: 1 mL of TRKLysis Buffer+20 μL of β-mercaptoethanol), vortexed and mixed well. 350 μL was added to each well of the 12-well cell culture plate, and allowed to stand at room temperature for 5 minutes to fully lyse the cells; • 3) 70% ethanol/well was prepared as needed, vortexed and mixed well. 350 μL was added to each well of the 12-well cell culture plate, mixed well by shaking, and transferred to the spin column (spin column+collection tube were assembled); • 4) Centrifugation was performed at 4° C., 12000 g for 60 sec. The waste liquid was discarded after centrifugation, while the spin column was kept; • 5) 500 μL of RNA Wash Buffer I was added, centrifuged at 4° C., 12000 g for 60 sec, the waste liquid was discarded after centrifugation, and the collection column was kept; • 6) 500 μL of RNA Wash Buffer II (confirmed that ethanol had been added) was added, centrifuged at 4° C., 12000 g for 60 sec, the waste liquid was discarded after centrifugation, and the collection column was kept; • 7) step 6) was repeated once again, centrifugation was performed at 4° C., 12000 g for 90 sec, the waste liquid was discarded after centrifugation, and the collection column was kept; • 8) Centrifugation was performed at 4° C., 12000 g for 120 sec to ensure that the spin column was fully dried; • 9) The dried spin column was inserted into a new 1.5 mL EP tube, and 30 μL of DEPC water was added to the membrane in the center of the spin column. It should be careful not to touch the EP tube cover in this step. It was allowed to stand at room temperature for 5 minutes to ensure that the RNA was fully dissolved in DEPC water. Centrifugation was performed at 4° C., 12000 g for 60 sec, and the EP tube was kept; • 10) NanoDrop ultra-micro-volume spectrophotometer was used to detect RNA concentration;
(§2) 5.2 Reverse transcription of RNA into cDNA: According to the instructions of PrimeScript™ RT reagent Kit (Perfect Real Time), the specific experimental steps were as follows:
(§3) 5.3 Q-PCR detection of target gene expression: According to the instructions of Power SYBR® Green PCR Master Mix, the specific operations were as follows:
(§4) After the reaction was completed, the amplification curve and dissolution curve of Q-PCR were confirmed, and the relative quantification method ([…]) was used to perform data analysis on the experimental results.
(§5) LX2 cells were passaged and plated normally. […] After 48 hours, the cells were collected, total RNA was extracted, and Q-PCR was used to detect the changes in the mRNA expression levels of liver fibrosis-related genes (ACTA2 encoding α-SMA, COL1A1 and COLIA2 encoding collagen I, COL3A1 encoding collagen III, SMAD3 encoding Smad3) and inflammation-related genes (IL1β encoding IL-1β, TNFα encoding TNFα) (for specific methods, see 5. Q-PCR detection of target gene expression as described above). α-SMA was a marker of hepatic stellate cell activation, and collagen I and collagen III were the main components of extracellular matrix deposition.
In general terms: Real-time PCR tracks product formation cycle by cycle.

The next assay has as its system COL1A1. As to the kind of experiment: In vitro efficacy in semi-activated LX2 cells, qPCR: COL1A1. The note with it: Homo sapiens, LX-2, 50 µM, 48 hours, Q-PCR, read-out: COL1A1 mRNA inhibition rate. As to the method: as §1, §2, §3, §4, §5
A further assay deals with COL1A2. Nature of the assay: In vitro efficacy in semi-activated LX2 cells, qPCR: COL1A2. The settings on record: Homo sapiens, LX-2, 48 hours, Q-PCR, read-out: COL1A2 mRNA inhibition rate. As to the method:
as §1, §2, §3, §4
(§6) LX2 cells were passaged and plated normally. After adherent growth for 12 hours, 50 µM of the test compound was added. After 48 hours, the cells were collected, total RNA was extracted, and Q-PCR was used to detect the changes in the mRNA expression levels of liver fibrosis-related genes (ACTA2 encoding α-SMA, COL1A1 and COLIA2 encoding collagen I, COL3A1 encoding collagen III, SMAD3 encoding Smad3) and inflammation-related genes (IL1β encoding IL-1β, TNFα encoding TNFα) (for specific methods, see 5. Q-PCR detection of target gene expression as described above). α-SMA was a marker of hepatic stellate cell activation, and collagen I and collagen III were the main components of extracellular matrix deposition.

The subject of assay [1] is collagen I and collagen III. Nature of the assay: Semi-activated LX2 cells, qPCR: collagen I and collagen III at the mRNA level. The settings on record: 48 hours, Q-PCR, Table 2. As to the method:
as §1, §3
as §6, with “deposition. […]” for “deposition.”

The test system of the next assay is α-SMA. As to the kind of experiment: In vitro efficacy in semi-activated LX2 cells, qPCR: α-SMA. The settings on record: 48 hours, Q-PCR; for inhibition at 50 µM: read-out: α-SMA mRNA inhibition rate; for inhibition of the expression of α-SMA at the mRNA level: Table 2. How it is done:
as §1, §2, §3, §4, §5

The test system of the next assay is IL-1β. As to the kind of experiment: In vitro efficacy in semi-activated LX2 cells, qPCR: IL-1β. The settings on record: Homo sapiens, LX-2, 50 µM, 48 hours, Q-PCR, read-out: IL-1β mRNA inhibition rate. How it is done:
as §1, §2, §3, §4, §5

Another assay relates to Smad3. As to the kind of experiment: In vitro efficacy in semi-activated LX2 cells, qPCR: Smad3. The note with it: 48 hours, Q-PCR; for inhibition at 50 µM: Homo sapiens, LX-2, 50 µM, read-out: Smad3 mRNA inhibition rate; for inhibition of the expression of Smad3 at the mRNA level: Table 2. How it is done: as §1, §2, §3, §4, §5
The next assay relates to TNF-α. As to the kind of experiment: In vitro efficacy in semi-activated LX2 cells, qPCR: TNF-α. The note with it: Homo sapiens, LX-2, 48 hours, Q-PCR, read-out: TNF-α mRNA inhibition rate. How it is done: as §1, §2, §3, §4, §6

One may read the inhibition as how much of the control response was suppressed.

`CN(C(=O)OCC1c2ccccc2-c2ccccc21)[C@@H](CC(=O)OC(C)(C)C)C(=O)O` [Compound 19]: the inhibition at 50 µM with COL3A1, in the assay on COL1A1 and with COL1A2 was 10 to 25% in each case. Further, in assay [1], the “inhibition of the expression of collagen I and collagen III at the mRNA level” value is reported as “could inhibit”.

`CC(C)OC(=O)OCOC(=O)[C@H](Cc1ccccc1)NC(=O)[C@@H](N)CC(=O)O` [Compound 53, (S)-3-amino-4-(((S)-1-(((isopropoxycarbonyl)oxy)methoxy)-1-oxo-3-phenylpropan-2-yl)amino)-4-oxobutyric acid hydrochloride]: the inhibition at 50 µM in the assay on COL3A1 lay within 10 to 25%; in the assay on COL1A1, 10 to 25%; in the assay on COL1A2, 1 to 10%; with α-SMA, 10 to 25%. Besides, the “inhibition of the expression of collagen I and collagen III at the mRNA level” value in assay [1] is “could inhibit”. Also, in the assay with α-SMA, the “inhibition of the expression of α-SMA at the mRNA level” value (“inhibition of the expression of α-SMA” below) is “could inhibit”.

Consider `O=C(O)C[C@H](NC(=O)OCc1ccccc1)C(=O)O` [Compound 2], for which the inhibition at 50 µM in the assay on COL3A1 lay within 10 to 25%; in the assay on IL-1β, 1 to 10%; with COL1A1, 25 to 50%; with COL1A2 it was 1 to 10%; with Smad3, 1 to 10%; in the assay on TNF-α, 10 to 25%. Moreover, in the assay on α-SMA, the inhibition at 50 µM lay in the range of 1 to 10%. Besides, in assay [1], the “inhibition of the expression of collagen I and collagen III at the mRNA level” value is “could inhibit”.

`CC(C)(C)OC(=O)C[C@H](NC(=O)OCC1c2ccccc2-c2ccccc21)C(=O)O` [Compound 18]: the inhibition at 50 µM lay in the range of 1 to 10% in the assay on COL3A1, 10 to 25% with COL1A1 and 1 to 10% in the assay with COL1A2. Further, the “inhibition of the expression of collagen I and collagen III at the mRNA level” value in assay [1] is recorded as “could inhibit”.

Regarding `N[C@@H](CC(=O)O)C(=O)N[C@@H](Cc1ccccc1)C(=O)O` [Compound 39] (H-Asp-Phe-OH), the inhibition at 50 µM with COL3A1, in the assay on COL1A2 and with TNF-α was 1 to 10% each time.

`CNC(=O)C[C@H](N)C(=O)O` [Compound 33]: the inhibition at 50 µM is 1 to 10% in the assay with COL3A1; 1 to 10% in the assay on IL-1β; 25 to 50% in the assay on COL1A1; 1 to 10% in the assay on COL1A2; 1 to 10% with Smad3; 25 to 50% in the assay with α-SMA. The “inhibition of the expression of collagen I and collagen III at the mRNA level” value in assay [1] is “could inhibit”. In addition, the “inhibition of the expression of α-SMA” value with α-SMA was “could inhibit”.

In the case of `O=CN[C@@H](CC(=O)O)C(=O)O` [Compound 29], the inhibition at 50 µM in the assay on COL1A1, with COL1A2 and with α-SMA was 1 to 10% throughout.

For the compound `CC(C)(C)OC(=O)C[C@H](N)C(=O)O` [Compound 13], the inhibition at 50 µM with IL-1β, in the assay with COL1A2, in the assay with TNF-α and in the assay with α-SMA was 1 to 10% in each case.

Turning to `CCC(=O)N[C@@H](CC(=O)O)C(=O)O` [Compound 58, propionyl-L-aspartic acid], the inhibition at 50 µM in the assay on COL3A1, with IL-1β, in the assay on COL1A2 and in the assay on α-SMA was 1 to 10% in each case.

Consider `CC(=O)N[C@@H](CC(=O)O)C(=O)O` [Compound 30], for which the inhibition at 50 µM was in the range of 10 to 25% with IL-1β, 25 to 50% with COL1A1, 1 to 10% in the assay with COL1A2 and 1 to 10% with α-SMA. The “inhibition of the expression of collagen I and collagen III at the mRNA level” value in assay [1] was “could inhibit”.

For `COC(=O)N[C@@H](CC(=O)O)C(=O)O` [Compound 61, (methoxycarbonyl)-L-aspartic acid], the inhibition at 50 µM with COL3A1 fell in the range of 1 to 10%; in the assay on IL-1β, 1 to 10%; in the assay with COL1A1, 25 to 50%; with COL1A2, 1 to 10%; with Smad3, 1 to 10%; in the assay on TNF-α, 1 to 10%. Besides, in assay [1], the “inhibition of the expression of collagen I and collagen III at the mRNA level” value was “could inhibit”.

On to `N[C@@H](CC(=O)OC1CCCCC1)C(=O)O` [Compound 23], for which the inhibition at 50 µM in the assay with COL3A1, in the assay with IL-1β, in the assay with COL1A1, in the assay with COL1A2, in the assay on Smad3 and with TNF-α was 1 to 10% each time.

For the compound `NCC(=O)N[C@@H](CC(=O)O)C(=O)O` [Compound 28] (H-Gly-Asp-OH), the inhibition at 50 µM in the assay with COL3A1 lay in the range of 10 to 25%; with IL-1β, 10 to 25%; in the assay with COL1A1, 10 to 25%; in the assay with COL1A2 it was 1 to 10%; in the assay on Smad3 it was 10 to 25%; in the assay with TNF-α, 1 to 10%. Moreover, the inhibition at 50 µM with α-SMA is 10 to 25%. The “inhibition of the expression of Smad3 at the mRNA level” value in the assay with Smad3 is listed as “could inhibit”. In assay [1], the “inhibition of the expression of collagen I and collagen III at the mRNA level” value is listed as “could inhibit”. Besides, the “inhibition of the expression of α-SMA” value in the assay on α-SMA is recorded as “could inhibit”.

As for `C=CCOC(=O)[C@H](CC(=O)O)NC(=O)OCC1c2ccccc2-c2ccccc21` [Compound 10], the inhibition at 50 µM in the assay with COL3A1 fell in the range of 10 to 25%; with IL-1β, 1 to 10%; in the assay on COL1A1, 1 to 10%; in the assay on COL1A2 it was 1 to 10%; in the assay with Smad3, 1 to 10%; in the assay with TNF-α it was 10 to 25%. In the assay with α-SMA, the inhibition at 50 µM lay within 1 to 10%. In assay [1], the “inhibition of the expression of collagen I and collagen III at the mRNA level” value was “could inhibit”.

Take `N[C@@H](CC(=O)OCc1ccccc1)C(=O)O` [Compound 22]: the inhibition at 50 µM lay in the range of 1 to 10% in the assay on COL3A1; 1 to 10% with IL-1β; 10 to 25% with COL1A1; 10 to 25% in the assay with Smad3; 1 to 10% in the assay with TNF-α. The “inhibition of the expression of Smad3 at the mRNA level” value in the assay on Smad3 is recorded as “could inhibit”. Moreover, in assay [1], the “inhibition of the expression of collagen I and collagen III at the mRNA level” value was “could inhibit”.
